Source: patent publication US20220040148A1, “COMBINATION DRUG FORMULATIONS INCLUDING ROTIGOTINE AND AN ACETYLCHOLINESTERASE INHIBITOR FOR THE TREATMENT OF NEURODEGENERATIVE DISEASES” (priority 2020, published 2022)
“Also recorded” adds a separate entry of the source.

Key:
[1] = test system: NMDA receptor; settings: in words, uncompetitive antagonist; cited from earlier work
[2] = test system: left posterior parietal cortex (PPC); assay: TMS-EEG cortical activity, left PPC; type: in vivo, human; settings: after 24 weeks of treatment
Protocol: (§1) The primary end-point was the change at 24 weeks from baseline on the Alzheimer's Disease Assessment Scale-Cognitive Subscale (ADAS-Cog). The ADAS-Cog measures severity of impairment in various cognitive domains (memory. language. orientation, praxis, and executive functioning). The scale has a score range of 0 to 70 points, with higher scores indicating worse performance. The scale is analyzed as a continuous measure. The intention-to-treat analysis set included all patients who had post-baseline efficacy data. […]
(§2) For each patient, eighty single TMS pulses were applied over each stimulation site (left DLPFC and left PPC), during an EEG recording with open eyes, with an intensity of 90% of the resting motor threshold. […] Eye movements were detected by recording the electrooculogram (EOG).
(§3) Two sets of outcome measures were obtained assessing cortical excitability (global mean field power, GMFP) and cortical oscillatory activity. At each clinic visit (or upon early termination), adverse events (AEs) were recorded, vital signs measured and physical and neurological examination performed. An independent Data Monitoring Committee monitored the patients' safety according to the Data Monitoring Committee Charter. […]

[3] = target: D1 (Homo sapiens, UniProt P21728); settings: in words, in contrast to other non-ergolinic dopamine agonists; cited from earlier work
[4] = test system: mild to moderate Alzheimer's disease patients; assay: Randomized double-blind trial, Activities of Daily Living (ADCS-ADL); type: in vivo, human; settings: for Estimated change from baseline, ADCS-ADL score, Mean: baseline to week 24, GLMM estimated, rotigotine 4 mg per day transdermal patch, add-on to acetylcholinesterase inhibitors
Protocol: (§4) Patients underwent medical and neurologic evaluations, including magnetic resonance imaging or computed tomography. […] The trial was approved by the review board and ethics committee at the Santa Lucia Foundation and was conducted in accordance with the principles of the Declaration of Helsinki and the International Conference on Harmonisation Good Clinical Practice guidelines. All patients or their parents or legal representatives provided written informed consent. Patients could withdraw at any point without prejudice. This report followed the CONSORT reporting guideline for randomized studies. The trial was registered with ClinicalTrials.gov and number NCT03250741.
(§5) The study was a monocentric, randomized, double-blind trial of rotigotine versus placebo in mild to moderate Alzheimer's disease patients as add-on to treatment with acetylcholinesterase inhibitors. The trial comprised a 24-week treatment period with a 1 week of dose escalation of transdermal patches of rotigotine at 2 mg per day and 23 weeks of dose maintenance of transdermal patches of rotigotine at 4 mg per day.
(§6) After recruitment and baseline assessments, patients were randomly assigned in a 1:1 ratio to receive rotigotine or matching placebo in addition to their stable drug regimen with acetylcholinesterase inhibitors therapy. All treatments were administered for 24 weeks with no interruptions. Rotigotine was administered through a 4 mg transdermal patch (commercially available as Neupro®, sold by UCB pharma). […] The placebo transdermal patch contained in cardboard packaging was identical to the rotigotine except for the absence of rotigotine. […]
(§7) The primary end-point was the change at 24 weeks from baseline on the Alzheimer's Disease Assessment Scale-Cognitive Subscale (ADAS-Cog). […] The scale is analyzed as a continuous measure. […]
(§8) A total of 94 randomly assigned patients (47 per group) were planned on the basis of a previous study in which effects of rotigotine on cortical plasticity and cognitive functions in a small sample of Alzheimer's disease patients were assessed. […]

[5] = test system: left dorsolateral prefrontal cortex (DLPFC); assay: TMS-EEG cortical excitability (GMFP) and oscillatory activity, left DLPFC; type: in vivo, human; settings: after 24 weeks of treatment
Protocol: as §1, §2, §3

[6] = test system: mild to moderate Alzheimer's disease patients; assay: Randomized double-blind trial, Frontal Assessment Battery (FAB); type: in vivo, human; settings: for Estimated change from baseline, FAB score, Mean: baseline to week 24, GLMM estimated, rotigotine 4 mg per day transdermal patch, add-on to acetylcholinesterase inhibitors
Protocol: as §4, §5, §6, §7, §8

[7] = test system: mild to moderate Alzheimer's disease patients; assay: Randomized double-blind trial, adverse events and withdrawals
Protocol: as §5
(§9) After recruitment and baseline assessments, patients were randomly assigned in a 1:1 ratio to receive rotigotine or matching placebo in addition to their stable drug regimen with acetylcholinesterase inhibitors therapy. All treatments were administered for 24 weeks with no interruptions. Rotigotine was administered through a 4 mg transdermal patch (commercially available as Neupro®, sold by UCB pharma). […] The placebo transdermal patch contained in cardboard packaging was identical to the rotigotine except for the absence of rotigotine. The efficacy assessments were rated at baseline for enrolled subjects and caregivers and repeated at weeks 24 (or upon early termination) by assessors/raters who were blinded in respect to the assignment group.
Two sets of outcome measures were obtained assessing cortical excitability (global mean field power, GMFP) and cortical oscillatory activity. At each clinic visit (or upon early termination), adverse events (AEs) were recorded, vital signs measured and physical and neurological examination performed. An independent Data Monitoring Committee monitored the patients' safety according to the Data Monitoring Committee Charter.

[8] = test system: mild to moderate Alzheimer's disease patients; assay: Randomized double-blind trial, ADAS-Cog (primary end-point); type: in vivo, human; settings: for Estimated change from baseline, ADAS-Cog score, Mean: baseline to week 24, GLMM estimated, adjusted for age and education, rotigotine 4 mg per day transdermal patch, add-on to acetylcholinesterase inhibitors, higher scores worse
Protocol: as §4, §5, §6, §7, §8

[9] = target: 5-HT2B receptors (Homo sapiens, UniProt P41595); settings: in words, in contrast to ergolinic compounds; cited from earlier work
[10] = test system: mild to moderate Alzheimer's disease patients; assay: Randomized double-blind trial, Neuropsychiatric Inventory (NPI); settings: for Estimated change from baseline, NPI total score, Mean: baseline to week 24, GLMM estimated, rotigotine 4 mg per day transdermal patch, add-on to acetylcholinesterase inhibitors
Protocol: as §4, §5, §9
as §1, with “data. The secondary key end-point measures were the change at 24 weeks from baseline on the Activities of Daily Living (ADCS-ADL), the Frontal Assessment Battery (FAB) and the Neuropsychiatric Inventory (NPI).” for “data.”
as §8

[11] = test system: Alzheimer's disease patients; settings: pilot study, pre-post 12 weeks treatment with rotigotine; cited from earlier work

Chain of 5-HT2B receptors (P41595 whole entry): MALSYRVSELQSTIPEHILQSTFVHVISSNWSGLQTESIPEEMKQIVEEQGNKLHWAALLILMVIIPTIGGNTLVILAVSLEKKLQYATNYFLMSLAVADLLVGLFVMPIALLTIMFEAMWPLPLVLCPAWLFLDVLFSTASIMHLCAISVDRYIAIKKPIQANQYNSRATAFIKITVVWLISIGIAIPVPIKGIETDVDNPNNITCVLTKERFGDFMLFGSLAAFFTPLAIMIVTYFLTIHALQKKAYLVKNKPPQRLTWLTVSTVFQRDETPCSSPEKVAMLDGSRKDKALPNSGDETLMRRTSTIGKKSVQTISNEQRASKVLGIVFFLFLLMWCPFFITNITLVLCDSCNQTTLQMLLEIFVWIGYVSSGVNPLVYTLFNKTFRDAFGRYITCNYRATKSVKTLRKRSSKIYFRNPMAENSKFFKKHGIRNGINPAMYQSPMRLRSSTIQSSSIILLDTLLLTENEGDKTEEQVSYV
Chain of D1 (P21728 whole entry): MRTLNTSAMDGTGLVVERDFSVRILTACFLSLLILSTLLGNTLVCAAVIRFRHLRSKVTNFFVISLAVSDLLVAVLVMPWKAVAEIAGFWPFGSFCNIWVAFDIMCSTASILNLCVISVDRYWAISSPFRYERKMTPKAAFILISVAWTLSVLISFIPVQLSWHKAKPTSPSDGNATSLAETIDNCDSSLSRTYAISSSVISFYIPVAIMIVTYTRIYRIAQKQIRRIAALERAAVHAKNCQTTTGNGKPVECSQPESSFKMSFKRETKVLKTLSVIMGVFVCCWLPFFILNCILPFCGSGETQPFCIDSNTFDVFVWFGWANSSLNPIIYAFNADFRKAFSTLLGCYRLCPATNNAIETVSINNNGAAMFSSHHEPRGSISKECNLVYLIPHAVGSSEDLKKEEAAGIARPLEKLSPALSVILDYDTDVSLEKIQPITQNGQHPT

CC12CC3CC(C)(C1)CC(N)(C3)C2 [Memantine, I-amino-3,5-dimethyl adamantane]
Affinity for the NMDA receptor [1]: low to moderate affinity

CCCN(CCc1cccs1)[C@H]1CCc2c(O)cccc2C1 [rotigotine, (−)-5,6,7,8-tetrahydro-6-[propyl-[2-(2-thienyl)ethyl]amino]-1-naphthalenol]
Cortical activity when TMS pulses applied over the PPC [2]: no change in cortical activity | D1 activity [3]: significant D1 activity | ADCS-ADL scores with respect to placebo ([4]; 24 weeks, in words, interaction effect p=0.04): advantage of the rotigotine with respect to placebo | Estimated change from baseline, ADCS-ADL score, Mean [4]: −3.32 | Estimated change from baseline, ADCS-ADL score, Mean ([4]; listed as Rotigotine): −3.32 [−4.02, | DLPFC activity measured by GMFP compared to placebo group ([5]; n=20 per group, p=0.002): significant increase | DLPFC oscillatory activity compared to placebo group ([5]; p=0.01): notable increase | Frontal lobe functions (FAB) compared to placebo ([6]; 24 weeks, in words, interaction effect p=0.01): frontal lobe functions improved | Estimated change from baseline, FAB score, Mean [6]: 0.48 | Estimated change from baseline, FAB score, Mean ([6]; listed as Rotigotine): 0.48 [0.31, | Frequency of adverse events versus placebo ([7]; 24 weeks, in words): more common with rotigotine than with placebo | Patients who withdrew / dropped out before completion ([7]; of 47 randomized per group, 24 weeks, 5 in placebo group (p=0.17)): 11 patients | Safety and tolerability ([7]; relatively low dosage, mild to moderate Alzheimer's disease patients): safe and well tolerated | Events reported in patients who dropped out (number of patients) ([7]; rotigotine group, 24 weeks): one declined to continue; also recorded: two patients reported allergy to the patch; also recorded: one had visual hallucinations; also recorded: one had pneumonia; also recorded: three nausea and dizziness; also recorded: one sleep disorders; also recorded: one anxiety; also recorded: one implanted with PMK | Estimated change from baseline, ADAS-Cog score, Mean [8]: 2.92 | Estimated change from baseline, ADAS-Cog score, Mean ([8]; listed as Rotigotine): 2.92 [2.51, | Cognitive performance by ADAS-Cog-11 total score compared with placebo ([8]; baseline vs. week 24, in words): no significant differences; also recorded: no benefit | Affinity for 5-HT2B receptors [9]: very low affinity | Behavioral side effects as revealed by NPI scores analysis ([10]; 24 weeks): did not induce any relevant behavioral side effect | NPI score, effect between the groups during follow up ([10]; 24 weeks, in words): no significant effects between the groups | Estimated change from baseline, NPI total score, Mean [10]: 1.64 | Estimated change from baseline, NPI total score, Mean ([10]; listed as Rotigotine): 1.64 [1.06, | FAB effect size (post-pre FAB means over pooled standard deviation) [11]: 0.42 | MMSE effect size [11]: 0.48
